Measured values published in paper PMC11302837, “Efficacy of BRAF/MEK-inhibitor therapy for epithelioid glioblastoma with a novel BRAFV600 mutation” (Acta Neuropathologica Communications, 2024).

Tests used:
[1] = design: method as in earlier work; details: serum of patients; ref EMA product information sheet, Delord et al., 2017 [29], Sullivan et al., 2020 [30]; cited from earlier work
[2] = Concentration of BRAF/MEK inhibitors in patient serum/plasma by LC-MS/MS; assay type: in vivo, human; details: encorafenib/binimetinib given day 1-3 then discontinued, dabrafenib/trametinib from day 4
Protocol: (§1) Determination of BRAF/MEK inhibitors concentration in plasma and CSF of patients by liquid chromatography–tandem mass spectrometry
Sample preparation of plasma and CSF samples was different. Twenty microliters of plasma were diluted with 180 µL of water and mixed with 200 µL formic acid (1%). An automated solid phase extraction with an ASPEC XL (Gilson, Middleton, USA) and Oasis HLB (Waters, Milford, USA) cartridges were used. The cartridges were conditioned, loaded, washed and finally eluted with 1 mL methanol. The SPE extracts were evaporated to dryness and reconstituted with 200 µL. For quantification, 10-point external calibration curves in blank plasma at the range from 1.95 to 1000 µg/L for all four substances were freshly prepared and measured in parallel.
(§2) Native CSF samples were used with a standard addition method for quantification. A volume of 20 µl was always injected into the Ultimate 3000 HPLC system from Thermo Scientific system coupled to an API4000 tandem mass spectrometer (ABSciex, Darmstadt, Germany). The BRAF and MEK inhibitors encorafenib, binimetinib, dabrafenib and trametinib were separated by reversed phase chromatography with a Synergi 4 μm Hydro-RP 80 A, 150 × 3 mm column (Phenomenex, Torrance, USA).
(§3) The temperature of column was constantly at 40 °C. Determination of the analytes was performed using the multiple reaction monitoring mode with nitrogen as collision gas. For positive ionization, a capillary voltage of 4000 V (positive ion mode) was used. Quantification was performed by the peak area method, and a weighted (1/x) regression of first order yielded the concentrations.
(§4) Moreover, comprehensive analyses of the patients’ CSF and plasma using liquid chromatography-tandem mass spectrometry were performed to determine the concentrations of various MAPKi two, four, and five days after regimen modification, i.e. five, seven, and eight days following initiation of the targeted therapy. There was a clear accumulation of all MAPKi in the patient’s plasma (Table 2). The concentrations determined reside within the therapeutic range of the maximum and minimum plasma concentrations published (Table 2).

[3] = Tolerability of oral regimen in the patient; assay type: in vivo, human; details: oral hard capsules and tablets; quantity and size
Protocol: Based on the promising results of the mutational and IHC analyses, a targeted therapy with the BRAF inhibitor, encorafenib and the MEK inhibitor, binimetinib was initiated. The dosage mirrored that of MM with 450 mg of encorafenib (i.e. 6 × 75 mg) administrated daily, and 45 mg of binimetinib (i.e. 3 × 15 mg), administrated twice daily. […] Consequently, after three days, the regimen was modified.

[4] = Concentration of BRAF/MEK inhibitors in patient CSF by LC-MS/MS; assay type: in vivo, human; details: for CSF concentration: CSF via EVD; for Kp: human, CSF/serum, oral
Protocol: as §1, §2, §3, §4

[5] = day 5 after treatment initiation
[6] = day 7 after treatment initiation
[7] = day 8 after treatment initiation

| Serum concentration [2, 5] [ng/mL] | Serum concentration [2, 6] [ng/mL] | Serum concentration [2, 7] [ng/mL] | CSF concentration [4, 5] [ng/mL] | CSF concentration [4, 6] [ng/mL] | CSF concentration [4, 7] [ng/mL] | Kp [4, 5] | Kp [4, 6] | Kp [4, 7] | SMILES | C max (maximum plasma concentration) [1] [ng/mL] | C min (minimum plasma concentration) [1] [ng/mL] | Tolerability by the patient [3] |
| --- | --- | --- | --- | --- | --- | --- | --- | --- | --- | --- | --- | --- |
| 96.5 | 19.1 | 13.8 | 10.3 | 5.3 | 5.0 | 0.107 | 0.277 | 0.362 | Cn1cnc2c(F)c(Nc3ccc(Br)cc3F)c(C(=O)NOCCO)cc21 [Binimetinib, binimetinib] | 654 | 51.4 | poorly tolerated |
| 13.5 | 5.7 | 6.1 | 2.4 | 1.1 | 1.1 | 0.178 | 0.193 | 0.18 | COC(=O)N[C@@H](C)CNc1nccc(-c2cn(C(C)C)nc2-c2cc(Cl)cc(NS(C)(=O)=O)c2F)n1 [Encorafenib, encorafenib] | 3800 | 13.9 | poorly tolerated |
| 8.8 | 7.7 | 9.2 | 0.0 | 0.3 | 0.4 | 0 | 0.039 | 0.043 | CC(=O)Nc1cccc(-n2c(=O)n(C3CC3)c(=O)c3c(Nc4ccc(I)cc4F)n(C)c(=O)c(C)c32)c1 [Trametinib, trametinib] | 22.2 | 12.1 | better tolerated |

| SMILES | Serum concentration [2, 5] [ng/mL] | Serum concentration [2, 6] [ng/mL] | Serum concentration [2, 7] [ng/mL] | CSF concentration [4, 5] [ng/mL] | CSF concentration [4, 6] [ng/mL] | CSF concentration [4, 7] [ng/mL] | Kp [4, 5] | Kp [4, 6] | Kp [4, 7] | C max (maximum plasma concentration) [1] [ng/mL] | C min (minimum plasma concentration) [1] [ng/mL] | Tolerability by the patient [3] |
| --- | --- | --- | --- | --- | --- | --- | --- | --- | --- | --- | --- | --- |
| CC(C)(C)c1nc(-c2cccc(NS(=O)(=O)c3c(F)cccc3F)c2F)c(-c2ccnc(N)n2)s1 [Dabrafenib, dabrafenib] | 322.9 | 188.0 | 94.6 | 5.4 | 6.1 | 1.5 | 0.017 | 0.032 | 0.016 | 1478 | 26 | better tolerated |
